The test system of one test is MAPK p38 phosphorylation. Put plainly: MAPK p38 Activation Assay (western blot), Panc-1. Format: cell-based, human. The settings on record: at 10 μM, Panc-1 pancreatic cancer cell line; starred symbols = activation. The method, boiled down:
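Panc-1 cells (KRas G12D) were treated with compound for 6 h at 37 °C, at 10 μM or as serial dilutions for IC50, with 0.3% DMSO. Method 1 used overnight serum-starved cells (0.5% FBS) stimulated with 1.5 ng/ml EGF for 15 min; Method 2 used unstimulated cells in 10% FBS. Phospho-p38 (Thr180/Tyr182) was detected by western blot.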
On the technique in general: In western blotting, separated proteins are transferred to a membrane and probed.

For the next test, the system named is Akt phosphorylation. Put plainly: Akt Phosphorylation Assay (western blot), Panc-1. Format: cell-based, human. Particulars: at 10 μM, * = activation. The method, boiled down: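 Phospho-Akt (Ser473) was measured by western blot in lysates of KRas G12D Panc-1 cells exposed to test compound for 6 h at 37 °C, either at 10 μM final with 0.3% DMSO or as serial dilutions for IC50. One format used overnight 0.5% FBS starvation followed by a 15 min pulse of 1.5 ng/ml EGF. The other used cells in 10% FBS with no stimulation.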

A further test addresses T1, cdc42 (Homo sapiens, UniProt P60953).
T1 construct: made in house
As to the kind of experiment: Cdc42 GTP Binding Domain Inhibition Assay. Particulars: read-out: Cdc42: % inh. A digest of the protocol: (§1)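 His-tagged cdc42 or Rheb (10–30 μg/mL) bound to nickel plates, then exposed to compound (20 μM, or serial dilutions for IC50) in 1% DMSO for 3 h at room temperature, ±Sos during final hour. Cy3- or Cy5-GTP (100 nM) added for 45 min; bound labelled GTP read by fluorescence after washes.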

Another test has as its target T2, Rheb (Homo sapiens, UniProt Q15382).
T2 construct: made in house
Put plainly: Rheb GTP Binding Domain Inhibition Assay. Particulars: read-out: Rheb: % inh. The method, boiled down:
as §1

T2 sequence (Q15382 whole entry): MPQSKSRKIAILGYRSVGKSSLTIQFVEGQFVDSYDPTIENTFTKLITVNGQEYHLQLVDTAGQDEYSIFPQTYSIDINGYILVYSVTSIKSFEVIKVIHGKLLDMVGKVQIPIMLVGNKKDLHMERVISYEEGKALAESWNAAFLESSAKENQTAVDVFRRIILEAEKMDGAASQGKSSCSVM
T1 sequence (P60953 whole entry): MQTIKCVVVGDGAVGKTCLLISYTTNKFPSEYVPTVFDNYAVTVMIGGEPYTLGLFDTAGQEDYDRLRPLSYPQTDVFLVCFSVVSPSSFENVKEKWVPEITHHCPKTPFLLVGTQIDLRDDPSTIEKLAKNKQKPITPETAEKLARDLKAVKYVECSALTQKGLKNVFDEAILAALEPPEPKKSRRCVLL

Turning to `Cc1c(-c2ccn(C(C)C)n2)cn2nc(-c3nccn3C)nc(Nc3cnccn3)c12` [Compound 62, 6-(1-Isopropyl-1H-pyrazol-3-yl)-5-methyl-2-(1-methyl-1H-imidazol-2-yl)-N-(pyrazin-2-yl)pyrrolo[2,1-f][1,2,4]triazin-4-amine], the “% inh of MAPK p38 in Panc-1” value with MAPK p38 phosphorylation is “H* (H* ≥ 100% activation)”. Also, the “% inh of Akt phosphorylation in Panc-1” value with Akt phosphorylation is reported as “D* (85-100% activation)”. Further, the inhibition at 20 µM was 1 to 25% on cdc42 and 0% at Rheb.
The matching figures for `Cc1c(-c2ccn(C(C)C)n2)cn2nc(-c3nccn3C)nc(Nc3ccn(C)n3)c12` [Compound 61, 6-(1-Isopropyl-1H-pyrazol-3-yl)-5-methyl-2-(1-methyl-1H-imidazol-2-yl)-N-(1-methyl-1H-pyrazol-3-yl)pyrrolo[2,1-f][1,2,4]triazin-4-amine]: “H* (H* ≥ 100% activation)”, “C* (46-84% activation)”, 76 to 100% and 76 to 100%.
`COc1cccc(-c2cn3nc(-c4nccn4C)nc(N[C@@H]4CC[C@@H](OC)C4)c3c2-c2ccccc2)c1F` (racemic) [Compound 43, rac 6-(2-Fluoro-3-methoxyphenyl)-N-((1R,3R)-3-methoxycyclopentyl)-2-(1-methyl-1H-imidazol-2-yl)-5-phenylpyrrolo[2,1-f][1,2,4]triazin-4-amine]: the “% inh of MAPK p38 in Panc-1” value in the test on MAPK p38 phosphorylation was “H* (H* ≥ 100% activation)”. Further, in the test on Akt phosphorylation, the “% inh of Akt phosphorylation in Panc-1” value is “B (26-49% inhibition)”. Further, the results for the inhibition at 20 µM on cdc42 and at Rheb were 1 to 25% and 26 to 49%, respectively.
On to `Cc1c(-c2ccn(C(C)C)n2)cn2nc(-c3nccn3C)nc(Nc3ncccn3)c12` [Compound 54, 6-(1-Isopropyl-1H-pyrazol-3-yl)-5-methyl-2-(1-methyl-1H-imidazol-2-yl)-N-(pyrimidin-2-yl)pyrrolo[2,1-f][1,2,4]triazin-4-amine], for which the “% inh of MAPK p38 in Panc-1” value with MAPK p38 phosphorylation is “H* (H* ≥ 100% activation)”. In the test with Akt phosphorylation, the “% inh of Akt phosphorylation in Panc-1” value is “B* (26-49% activation)”. Moreover, the inhibition at 20 µM on cdc42 lay within 50 to 75%; at Rheb, 76 to 100%.
In the case of `COc1cccc(-c2cn3nc(-c4nccn4C)nc(N[C@H]4C[C@H](OC)C4)c3c2-c2ccccn2)c1F` [Compound 45, 6-(2-Fluoro-3-methoxyphenyl)-N-((1r,3r)-3-methoxycyclobutyl)-2-(1-methyl-1H-imidazol-2-yl)-5-(pyridin-2-yl)pyrrolo[2,1-f][1,2,4]triazin-4-amine], the “% inh of MAPK p38 in Panc-1” value with MAPK p38 phosphorylation is “H* (H* ≥ 100% activation)”. Also, in the test on Akt phosphorylation, the “% inh of Akt phosphorylation in Panc-1” value is given as 0 (0% inhibition). In addition, the inhibition at 20 µM fell in the range of 26 to 49% at cdc42 and 50 to 75% on Rheb.
Regarding `COc1cccc(-c2cn3nc(-c4nccn4C)nc(N[C@H]4C[C@H](OC)C4)c3c2-c2ccccc2)c1F` [Compound 42, 6-(2-Fluoro-3-methoxyphenyl)-N-((1r,3r)-3-methoxycyclobutyl)-2-(1-methyl-1H-imidazol-2-yl)-5-phenylpyrrolo[2,1-f][1,2,4]triazin-4-amine], the “% inh of MAPK p38 in Panc-1” value in the test with MAPK p38 phosphorylation is “H* (H* ≥ 100% activation)”. In addition, the “% inh of Akt phosphorylation in Panc-1” value in the test on Akt phosphorylation is listed as “D (85-100% inhibition)”. Further, the inhibition at 20 µM on cdc42 and on Rheb was 1 to 25% throughout.
Consider `Cc1c(-c2ccn(C(C)C)n2)cn2nc(-c3nccn3C)nc(Nc3ccncn3)c12` [Compound 55, 6-(1-Isopropyl-1H-pyrazol-3-yl)-5-methyl-2-(1-methyl-1H-imidazol-2-yl)-N-(pyrimidin-4-yl)pyrrolo[2,1-f][1,2,4]triazin-4-amine], for which the “% inh of MAPK p38 in Panc-1” value with MAPK p38 phosphorylation is recorded as “H* (H* ≥ 100% activation)”. Further, the “% inh of Akt phosphorylation in Panc-1” value with Akt phosphorylation was “A* (1-25% activation)”. Besides, the inhibition at 20 µM at cdc42 fell in the range of 50 to 75%; at Rheb it was 76 to 100%.
In the case of `Cc1c(-c2ccn(C(C)C)n2)cn2nc(-c3nccn3C)nc(Nc3ncco3)c12` [Compound 60, N-(6-(1-Isopropyl-1H-pyrazol-3-yl)-5-methyl-2-(1-methyl-1H-imidazol-2-yl)pyrrolo[2,1-f][1,2,4]triazin-4-yl)oxazol-2-amine], the “% inh of MAPK p38 in Panc-1” value in the test with MAPK p38 phosphorylation is “H* (H* ≥ 100% activation)”. Further, the “% inh of Akt phosphorylation in Panc-1” value in the test on Akt phosphorylation is given as “D* (85-100% activation)”. The inhibition at 20 µM on cdc42 lay in the range of 1 to 25%; at Rheb, 26 to 49%.
With `COc1cc(Nc2nc(-c3nccn3C)nn3cc(-c4ccn(C)n4)c(C)c23)ncn1` [Compound 63, N-(6-Methoxypyrimidin-4-yl)-5-methyl-2-(1-methyl-1H-imidazol-2-yl)-6-(1-methyl-1H-pyrazol-3-yl)pyrrolo[2,1-f][1,2,4]triazin-4-amine], in the test on MAPK p38 phosphorylation, the “% inh of MAPK p38 in Panc-1” value is listed as “H* (H* ≥ 100% activation)”. In the test on Akt phosphorylation, the “% inh of Akt phosphorylation in Panc-1” value is “D* (85-100% activation)”. Also, the inhibition at 20 µM on cdc42 was 76 to 100%; on Rheb, 50 to 75%.
`COc1ccnc(Nc2nc(-c3nccn3C)nn3cc(-c4ccn(C(C)C)n4)c(C)c23)n1` [Compound 53, 6-(1-Isopropyl-1H-pyrazol-3-yl)-N-(4-methoxypyrimidin-2-yl)-5-methyl-2-(1-methyl-1H-imidazol-2-yl)pyrrolo[2,1-f][1,2,4]triazin-4-amine]: the “% inh of MAPK p38 in Panc-1” value in the test with MAPK p38 phosphorylation is “H* (H* ≥ 100% activation)”. Also, the “% inh of Akt phosphorylation in Panc-1” value with Akt phosphorylation is recorded as “A* (1-25% activation)”. Moreover, the inhibition at 20 µM was 50 to 75% at cdc42 and 76 to 100% on Rheb.
For the molecule `Cc1c(-c2ccn(C(C)C)n2)cn2nc(-c3nccn3C)nc(Nc3nnco3)c12` [Compound 59, N-(6-(1-Isopropyl-1H-pyrazol-3-yl)-5-methyl-2-(1-methyl-1H-imidazol-2-yl)pyrrolo[2,1-f][1,2,4]triazin-4-yl)-1,3,4-oxadiazol-2-amine], in the test on MAPK p38 phosphorylation, the “% inh of MAPK p38 in Panc-1” value was “H* (H* ≥ 100% activation)”. The “% inh of Akt phosphorylation in Panc-1” value in the test with Akt phosphorylation is reported as “C* (46-84% activation)”. The inhibition at 20 µM at cdc42 and on Rheb was 50 to 75% throughout.
